We go through 3 compounds from US4640799A, “Carbapenem antibiotics” (priority 1985, dated 1987).

This assay deals with S. aureus A-9606. Description: Protective effect in the intramuscular treatment of infected mice. It counts as in vivo. Conditions: Staphylococcus aureus, A9606, im, i.m. 0 and 2 h postinfection, i.p. challenge ~9 × 10^7 (Ex. 4 and 5), read-out: PD50/treatment. The procedure: Treatment Schedule: *For compound of Ex. 2, mice were infected i.p. with
A20481. For compounds of Ex. 4 and 5, mice were infected i.p. with
(A9843A). Mice were treated i.m. with drugs 0 and 2 h postinfection.
Turning to `C[C@@H](O)[C@H]1C(=O)N2C(C(=O)[O-])=C(SCC[N+]3(C)CCN(C)CC3)C[C@H]12` [Ex. 4, (5R,6S)3-[2-(1,4-dimethyl-1-piperazinium)ethylthio]-6-[1-(R)-hydroxyethyl]-7-oxo-1-azabicyclo[3.2.0]hept-2-ene-2-carboxylate], the ED50 was 1.6 mg/kg.

Regarding `C[C@@H](O)[C@H]1C(=O)N2C(C(=O)[O-])=C(SCC[N+]3(C)CC[S+]([O-])CC3)C[C@H]12` (single isomer, unassigned) [Ex. 5 comp. A], the ED50 is 1.2 mg/kg.

With `C[C@@H](O)[C@H]1C(=O)N2C(C(=O)[O-])=C(SCC[N+]3(C)CCSCC3)C[C@H]12` [Ex. 2, 3-[2-(N-methyl-thiomorpholinium)ethylthio]-6α-[1'-(R)-hydroxyethyl]-7-oxo-1-azabicyclo[3.2.0]-hept-2-ene-2-carboxylate], the ED50 came out at 0.72 mg/kg.
